According to patent US9868715B2 (THE BOARD OF REGENTS OF THE UNIVERSITY OF TEXAS SYSTEMS, priority 2014, dated 2018):
Entries after “also recorded” stand apart in the source; their conditions may differ.

How the values were obtained:
[1] = test system: C57BL/6 mice with cerulein-induced CP; experiment: Chronic pancreatitis (CP) animal model, fibronectin IHC; type: in vivo; conditions: 0.5 mg/kg daily oral gavage, 3 weeks
Experimental: In order to evaluate the anti-fibrotic effect of these new compounds as a proof-of-concept, the compounds were tested in a preclinical animal model of CP. CP was induced in mice using the well-established model of repeated cerulean (CR) injections (Lerch and Gorelick 2013, Gastroenterology 144:1180; Aghdassi et al. 2011, Fibrogenesis Tissue Repair 4:26). […] After four weeks, the pancreata were processed and stained for fibronectin, which is a major component of the ECM. […] ImageJ analysis of the slides quantified the significant decrease in fibrosis (p<0.001) (FIG. 4E).
Chronic pancreatitis (CP) animal model. Animal experiments were conducted under an Institutional Animal Care and Use Committee-approved protocol. CP was induced in C57BL/6 mice using supraoptimal pancreatic stimulation with cerulein (CR), a cholecystokinin analogue (Bachem, Torrance, Calif.). CP (50 μg CR/kg mouse weight) was administered via intraperitoneal route hourly for 5 h for 3 d/week for a total of 4 weeks. Control mice received phosphate buffered saline (PBS) injections following the same schedule. […] At the end of Week 4, the mice were anesthestized with isoflurane and sacrificed per protocol. The pancreata were quickly harvested and processed.
Immunohistochemistry (IHC) and image analysis. Pancreata were formalin-fixed and paraffin-embedded. Prior to staining, sections (5 μm) were deparaffinized with xylene, dehydrated with ethanol, and subjected to heat-mediated antigen retrieval (DAKO, Carpinteria, Calif.) to optimize antigen immunoreactivity. Fibronectin antibody (1:600; Santa Cruz Biotechnology, Dallas, Tex.), and biotinylated anti-goat IgG (1:400; Vector Laboratories Inc., Burlingame, Calif.) were used. […] The percent area of brown fibronectin staining was quantified using the Image Processing and Analysis in Java (ImageJ) 1.46r software (NIH, Bethesda, Md.) and a color deconvolution plug-in (Ruifrok and Johnston, Anal Quant Cytol Histol 2001, 23:291; Schneider et al., Nat Methods 2012, 9:671).

[2] = molecular target: T1, human CBS (cystathionine-β-synthase) (Homo sapiens, UniProt P35520); experiment: H2S production by recombinant CBS; type: biochemical; conditions: 100 μM compound; H2S production as % of control (100%)
T1 construct: GST (N); made in house; host or cells: E. coli BL21(DE3) Codon Plus
T1 sequence (P35520 1-551): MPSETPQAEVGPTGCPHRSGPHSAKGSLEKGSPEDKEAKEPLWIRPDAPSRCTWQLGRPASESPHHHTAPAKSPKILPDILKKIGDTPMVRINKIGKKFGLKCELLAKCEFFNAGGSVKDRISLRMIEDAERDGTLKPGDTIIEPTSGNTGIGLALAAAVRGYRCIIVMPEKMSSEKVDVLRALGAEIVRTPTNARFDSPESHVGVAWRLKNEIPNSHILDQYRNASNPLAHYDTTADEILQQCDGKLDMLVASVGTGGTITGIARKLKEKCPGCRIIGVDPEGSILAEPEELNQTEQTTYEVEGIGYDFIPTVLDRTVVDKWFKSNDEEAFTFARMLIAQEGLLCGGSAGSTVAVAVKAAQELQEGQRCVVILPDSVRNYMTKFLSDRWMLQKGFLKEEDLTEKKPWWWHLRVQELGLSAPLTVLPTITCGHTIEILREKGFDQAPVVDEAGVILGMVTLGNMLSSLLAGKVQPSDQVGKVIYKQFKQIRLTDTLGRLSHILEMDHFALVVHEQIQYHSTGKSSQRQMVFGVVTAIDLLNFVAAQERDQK
Experimental: Recombinant human CBS protein expression and purification. The expression and purification of human CBS was performed as described previously (Asimakopoulou et al. 2013, Br J Pharmacol. 169(4):922-32). Briefly, E. Coli BL21(DE3) Codon Plus cells (Stratagene, La Jolla, Calif., USA) containing the expression vector pGEX-Kg/GST-CBS were grown at 37° C. and 180 rpm in LuriaBertani (LB) broth medium containing 100 μg/ml ampicillin to an absorption of 0.6-0.8 at 600 nm. Protein expression was induced by addition of 0.1 mM IPTG (isopropyl-b-D-thiogalactopyranoside) and cells were further incubated at 30° C. overnight. The bacteria were harvested and sonicated in lysis buffer PBS (140 mM NaCl, 2.7 mM KCl, 10 mM Na2HPO4, 1.8 mM KH2PO4, pH 7.8) containing a protease inhibitors cocktail (Sigma). The protein lysate was loaded onto a GSTrap FF 1 ml affinity column (Amersham Biosciences) and the GST-CBS recombinant protein was eluted with the elution buffer (50 mM Tris-HCl, 10 mM reduced glutathione, pH 8.0) and then dialyzed and concentrated in 10 mM sodium phosphate buffer (pH 8.2) and DTT (1 mM).
Measurement of H2S production by recombinant CBS. The measurement of H2S production by recombinant CBS enzyme was performed as described (Asimakopoulou et al. 2013, Br J Pharmacol. 169(4):922-32). Briefly, each test consisted of a 100 μl reaction mixture in 50 mM sodium phosphate buffer pH 8.2 containing 1 μg of the purified human CBS enzyme, 0.01 mM pyridoxal-5′-phosphate (PLP), 10 mM L-cysteine and 0.5 mM homocysteine. […] The reaction was initiated by transferring the Eppendorf tubes from ice to a 37° C. shaking water bath. After 60 minutes of incubation at 37° C., the reaction was terminated by adding 1% ZnAc followed by 10% trichloroacetic acid. Subsequently, N,N-dimethylphenylendiamine sulfate (20 mM in 7.2 M HCl) and FeCl3 (30 mM in 1.2 M HCl) were added and the optical absorbance of the solutions was measured at 650 nm.

**Q.** For `O=c1cc(-c2ccc(O)cc2)oc2cc(O)cc(O)c12` [Apigenin, 4′,5,7-trihydroxyflavone, reference compound], which “Pancreatic fibrosis in CP model (fibronectin stain), result in words” value (“Pancreatic fibrosis in CP model” for short) [1] is on record?
**A.** significantly decreased the stromal fibrosis of CP; also recorded: significantly reduced the fibrotic response; also recorded: significant efficacy to reduce pancreatic fibrosis

**Q.** And the activity at 100 µM [2]?
**A.** 80.8%

**Q.** For `COc1cc(OC)c2c(=O)cc(-c3ccc(OCC4CO4)cc3)oc2c1` (stereo not drawn) [Compound 23, 5,7-Dimethoxy-2-(4-oxiranylmethoxyphenyl)-chromen-4-one], which “Pancreatic fibrosis in CP model” value [1] is on record?
**A.** as efficacious as apigenin in reducing pancreatic fibrosis; also recorded: significantly decreased the stromal fibrosis of CP; also recorded: significantly reduced the fibrotic response; also recorded: significant efficacy to reduce pancreatic fibrosis

**Q.** What about the activity at 100 µM [2] of the same compound?
**A.** 119%

**Q.** Which “Pancreatic fibrosis in CP model” value [1] does the source give for `COc1cc(OC)c2c(=O)cc(-c3ccc(OCC(O)CN4CCCCC4)cc3)oc2c1` (stereo not drawn) [Compound 24, 2-(4-(2-Hydroxy-3-piperidin-1-yl-propoxy)phenyl)-5,7-dimethoxy-chromen-4-one] here?
**A.** as efficacious as apigenin in reducing pancreatic fibrosis; also recorded: significantly decreased the stromal fibrosis of CP; also recorded: significantly reduced the fibrotic response; also recorded: significant efficacy to reduce pancreatic fibrosis

**Q.** What about the activity at 100 µM [2] of the same compound?
**A.** 79%
